# Assay results published in article PMC12392461, “Beyond Estrogenicity: A Comparative Assessment of Bisphenol A and Its Alternatives in In Vitro Assays Questions Safety of Replacements” (Environmental Science & Technology, 2025).
# Like-named read-outs stand apart in the source and are kept apart here.
# How the values were obtained:
# [1] = target: T1, Peroxisome proliferator-activated receptor γ (Homo sapiens, UniProt P37231); assay: cell-based; settings: for EC10, PPARγ (M): 10% of maximum effect of rosiglitazone; for EC10, linear transformed / EC10, linear / logEC10: PPARγ bioassay, dosing range all; for EC10, linear: linear model; for logEC10: log-logistic model; for SR-ScorePPARγ: SR-Score, sigma k=1, x=5; for EC10, PPARγ: effect; for log(1/EC10) PPARγ: input of the ToxPi score, values up to 1.00; for Emax: read-out: Emax%PPARγ
# T1 sequence (P37231 238-505 limits assumed): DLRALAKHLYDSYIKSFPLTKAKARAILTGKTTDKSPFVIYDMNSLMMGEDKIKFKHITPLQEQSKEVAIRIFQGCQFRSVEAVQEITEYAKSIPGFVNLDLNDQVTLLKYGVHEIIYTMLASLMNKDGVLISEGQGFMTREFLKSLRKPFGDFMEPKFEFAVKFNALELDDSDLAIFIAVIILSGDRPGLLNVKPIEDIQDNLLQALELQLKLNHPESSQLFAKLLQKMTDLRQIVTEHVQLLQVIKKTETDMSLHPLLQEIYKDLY
# Text: All bioassay media components and the ERα-UAS-bla GripTite and PPARγ-UAS-bla cells were obtained from Thermo Fisher Scientific (Waltham, MA, USA). AREc32 reporter gene cells based on MCF7 were provided by C. Roland Wolf (Cancer Research UK); AhR CALUX cells (H4L7.5c2 derived from H4IIe) were provided by Michael Denison (UC Davis, USA); and SH-SY5Y cells were purchased from Sigma-Aldrich.
# (§1) Cell culture conditions and bioassay protocols including response detection are provided in Text S2.1–2.4 and Table S3. − Cell viability was determined from cell confluency using an IncuCyte S3 Live-Cell Analysis System (Sartorius AG, Essen, Germany) before and after exposure, except for SH-SY5Y cells (live–dead staining with Nuclear Green LcS1 and propidium iodide, Abcam, UK). For metabolic activation experiments, cell viability was assessed using the ToxBLAzer DualScreen Kit (Thermo Fisher Scientific) to capture the remaining toxicity in ERα-UAS-bla GripTite after treatment with the aCYP catalyst (details in Text S2.4).
# (§2) For ARE, the concentration that triggered an induction ratio of 1.5 (ECIR1.5) was used as the benchmark value, as detailed in Text S2.5. IC10 values also served as a threshold for data analysis in all assays; only concentrations below IC10 were considered when deriving EC10 or ECIR1.5.
# The maximum efficacy (Emax%) refers to the maximum of the log–logistic concentration–response curve attained by test chemicals compared to the reference chemical’s maximum and was obtained for both ERα and PPARγ. […]
# S2: Cell culture and bioassays
# S2.1: Cell Culturing Conditions
# All suppliers and sources are given in detail in SI-Excel S3. The bioassay media for the different assays were prepared as follows: Assay medium for ER alpha-UAS-bla GripTite (ERα) and […]
# 2% charcoal-stripped FBS, and 100 U/mL penicillin-streptomycin. […]
# (§3) S2.2: Cell Seeding and Incubation. For all bioassays, cell suspensions in the respective assay medium were dispensed into each well of 384-well plates using a MultiFlo Dispenser (Biotek, (now Agilent), Winooski, VT, U.S.). After seeding, the plates were incubated at 37° C and 5% CO₂ for […]. The final cell densities and plate types were as follows: Black poly-D-lysine […]
# 6500 cells/well, ERα: 5000 cells/well. White 384-well plates with a clear bottom (Product No. […]
# S2.3: Chemical Dosing and Assay Analysis Procedures.
# HEK293H (PPARγ) = settings: for IC10, linear transformed / IC10, linear / logIC10: PPARγ bioassay cytotoxicity, dosing range all; for IC10, linear: linear model; for logIC10: log-logistic model; for IC10, HEK293, PPARγ: cytotoxicity, HEK293 (PPARγ assay cells)
# Experimental: as §1, §2
# (§4) We measured the cytotoxicity of BPA and its alternatives in HEK293H (PPARγ), HEK293T (ERα), H4IIe (AhR CALUX), MCF7 (ARE/MMP), and differentiated SH-SY5Y cells (Table S6). […]
# as §3
# (§5) 6500 cells/well, ERα: 5000 cells/well. White 384-well plates with a clear bottom (Product No.
# (§6) NYC, U.S.) for AhR: 3250 cells/well. Black Collagen I coated plates were used (Product No.
# (§7) S2.3: Chemical Dosing and Assay Analysis Procedures. The dosing procedure and high-throughput assay workflow have been described in detail before. 9 The dosing concentrations […]
# (§8) Stock solutions were then either added directly to the respective cell culture medium or evaporated under nitrogen, followed by replenishment with fresh medium. The final solvent content in each well was kept below 1% for methanol, 0% for acetonitrile.
# (§9) Dosing plates were prepared as 11 -step serial dilutions using a Hamilton Microlab Star robotic system (Hamilton, Bonaduz, Switzerland), and chemicals were dosed in duplicates by transferring 10 μL twice from the dosing plates to the cell plates . After quantifying cell confluency as described in S2. 4., the exposed cells were incubated at 37° C and 5% CO₂ for an additional 24 h. All chemicals were tested in all assays with at least three independent […]
# (§10) S2.4: Cell Viability Measurement s and bioanalytical protocols . The confluency as a measure of cell viability was determined with an IncuCyte S3 Live -Cell Analysis System (Sartorius AG, Essen, Germany). With this method the confluency of cells in a microscopy image are normalized to control wells without cells and compared before and after 24 hours of exposure.
# (§11) This method has been described previously 13. […]
# MCF7 (ARE/MMP) = settings: for IC10, linear transformed / IC10, linear / logIC10: dosing range all; for IC10, MCF7, ARE: MCF7, ARE readout; for IC10, MCF7, MMP: MCF7, MMP readout
# Experimental: as §1, §2, §4, §3, §5, §6, §7, §8, §9, §10, §11
# H4IIe (AhR CALUX) = settings: for IC10, linear: linear model fit; for Toxic ratio (TR) TRAhR: against baseline cytotoxicity; for IC10, H4IIe, AhR: H4IIe (AhR assay cells)
# Experimental: as §1, §2, §4, §3, §5, §6, §7, §8, §9, §10, §11
# HEK293T (ERα) = settings: for IC10, HEK293, ERα: HEK293 (ERα assay cells)
# Experimental: as §1, §2, §4, §3, §5, §6, §7, §8, §9, §10, §11
# [2] = Bioassay ARE, cytotoxicity, linear model fit
# [3] = Bioassay ARE, cytotoxicity, log-logistic model fit
# [4] = MMP bioassay cytotoxicity, linear model
# [5] = MMP bioassay cytotoxicity, log-logistic model
# [6] = Bioassay AhR, cytotoxicity, dosing range all
# [7] = Bioassay AhR, cytotoxicity, dosing range all, log-logistic model fit
# [8] = Bioassay ERα, cytotoxicity, dosing range all
# [9] = Bioassay ERα, cytotoxicity, dosing range all, linear model fit
# [10] = Bioassay ERα, cytotoxicity, dosing range all, log-logistic model fit
SMILES,"EC10, linear [1]",logEC10 [1],"IC10, linear transformed (HEK293H (PPARγ))","IC10, linear (HEK293H (PPARγ))",logIC10 (HEK293H (PPARγ)),"IC10, HEK293, PPARγ (HEK293H (PPARγ)) [µM]","IC10, linear transformed (MCF7 (ARE/MMP); Bioassay ARE, cytotoxicity)","IC10, linear (MCF7 (ARE/MMP); [2])",logIC10 (MCF7 (ARE/MMP); [3]),"IC10, linear transformed (MCF7 (ARE/MMP); MMP bioassay cytotoxicity)","IC10, linear (MCF7 (ARE/MMP); [4])",logIC10 (MCF7 (ARE/MMP); [5]),"IC10, MCF7, ARE (MCF7 (ARE/MMP); cytotoxicity) [µM]","IC10, MCF7, MMP (MCF7 (ARE/MMP); cytotoxicity) [µM]","IC10, linear transformed (H4IIe (AhR CALUX); [6])","IC10, linear (H4IIe (AhR CALUX); [6])",logIC10 (H4IIe (AhR CALUX); [7]),"IC10, H4IIe, AhR (H4IIe (AhR CALUX); cytotoxicity) [µM]","IC10, linear transformed (HEK293T (ERα); [8])","IC10, HEK293, ERα (HEK293T (ERα); cytotoxicity) [µM]",other results
"O=C(OCc1ccccc1)c1ccc(O)cc1 [BzPB, Benzyl 4-hydroxybenzoate]",2.87E-06,-5.69,3.90E-06,3.41E-05,-4.33,46.8,8.95E-05,1.23E-04,-4.05,2.97E-04,1.94E-04,-3.53,89.5,297,2.87E-04,1.74E-04,-3.54,174,1.15E-05,42.1,"EC10, PPARγ (M) [1]: 2.04 × 10^–6 M; EC10, linear transformed [1]: 2.04E-06; SR-ScorePPARγ [1]: 1.00; Specificity ratio (SRbaseline) SRPPARγ ([1]; against baseline cytotoxicity): 8.14; Specificity ratio (SRcytotoxicity) SRPPARγ ([1]; against experimental cytotoxicity): 22.95; EC10, PPARγ [1]: 2.04 µM; log(1/EC10) PPARγ [1]: 0.80; Emax [1]: 16%; Toxic ratio (TR) TRPPARγ (HEK293H (PPARγ); against baseline cytotoxicity): 0.35; Toxic ratio (TR) TRARE (MCF7 (ARE/MMP); against baseline cytotoxicity, ARE readout): 0.38; Toxic ratio (TR) TRMMP (MCF7 (ARE/MMP); against baseline cytotoxicity, MMP readout): 0.11; Toxic ratio (TR) TRAhR (H4IIe (AhR CALUX)): 0.19; IC10, linear (HEK293T (ERα); [9]): 4.80E-05; logIC10 (HEK293T (ERα); [10]): -4.38; Toxic ratio (TR) TRERα (HEK293T (ERα); against baseline cytotoxicity): 0.39"
CC1(C)[C@H](O)C(C)(C)[C@H]1O [Trans TMCD],no effect,no effect,1.52E-03,no cytotoxicity,no cytotoxicity,,,no cytotoxicity,no cytotoxicity,,no cytotoxicity,no cytotoxicity,,,1.03E-02,8.94E-03,-1.99,,,,"IC10, linear transformed (HEK293T (ERα); ERα bioassay cytotoxicity, dosing range all): 5.38E-03; IC10, linear (HEK293T (ERα); ERα bioassay cytotoxicity, dosing range all, linear model): no cytotoxicity; logIC10 (HEK293T (ERα); ERα bioassay cytotoxicity, dosing range all, log-logistic model): no cytotoxicity"
"C=CCOc1ccc(S(=O)(=O)c2ccc(O)cc2)cc1 [BPS-MAE, 4-[[4-(Allyloxy)phenyl]sulfonyl]phenol]",6.41E-07,-6.25,1.96E-05,9.34E-05,-4.24,57.5,3.86E-04,4.93E-04,-3.41,8.44E-04,1.02E-03,-3.07,386,844,8.61E-05,8.24E-05,-4.07,82.4,6.22E-05,244,"EC10, PPARγ (M) [1]: 5.57 × 10^–7 M; EC10, linear transformed [1]: 5.57E-07; SR-ScorePPARγ [1]: 1.00; EC10, PPARγ [1]: 0.557 µM; log(1/EC10) PPARγ [1]: 0.88; Emax [1]: 22%; IC10, linear (HEK293T (ERα); [9]): 2.44E-04; logIC10 (HEK293T (ERα); [10]): -3.85"
"CC(C)(c1cc(Br)c(O)c(Br)c1)c1cc(Br)c(O)c(Br)c1 [TBBPA, 3,3',5,5'-Tetrabromobisphenol A]",,,,,,,,,,,,,,,,,,,,,"logIC10 (H4IIe (AhR CALUX); rat, 24 h): -3.80; IC10, linear (HEK293T (ERα)): no cytotoxicity; logIC10 (HEK293T (ERα); human, 24 h): -4.81"
"CC1(C)[C@H](O)C(C)(C)[C@H]1O [t-TMCD, trans-2,2,4,4-Tetramethyl-1,3-cyclobutanediol]",,,,,,,,,,,,,,,,,,8940,,,Toxic ratio (TR) TRAhR (H4IIe (AhR CALUX)): 0.11
"Oc1ccc(C2(c3ccc(O)cc3)CCCCC2)cc1 [BPZ, 1,1'-Bis(4-hydroxyphenyl)cyclohexane]",,,4.22E-06,,-5.04,9.12,7.27E-05,3.45E-05,-4.14,3.28E-05,3.30E-05,-4.48,72.7,32.8,8.38E-05,1.06E-04,-4.08,83.8,8.13E-06,6.64,"IC10, linear (HEK293T (ERα); [9]): 6.53E-06; logIC10 (HEK293T (ERα); [10]): -5.18"
"O=S(=O)(c1ccc(O)cc1)c1ccc(O)cc1 [BPS, 4,4'-Sulfonyldiphenol]",1.02E-05,no effect,3.12E-05,6.15E-04,-3.22,603,1.39E-03,1.31E-03,-2.86,1.22E-03,1.44E-03,-2.92,1390,1220,,,,,,520,"IC10, linear transformed (HEK293T (ERα); Bioassay ERα, cytotoxicity, dosing range high): 1.03E-04; IC10, linear (HEK293T (ERα); Bioassay ERα, cytotoxicity, dosing range high, linear model fit): 5.20E-04; logIC10 (HEK293T (ERα); Bioassay ERα, cytotoxicity, dosing range high, log-logistic model fit): -3.33; IC10, linear transformed (HEK293T (ERα); ERα bioassay cytotoxicity, dosing range low): 5.72E-05; IC10, linear (HEK293T (ERα); ERα bioassay cytotoxicity, dosing range low, linear model): no cytotoxicity; logIC10 (HEK293T (ERα); ERα bioassay cytotoxicity, dosing range low, log-logistic model): no cytotoxicity"
